Four molecules from publication PMC11656708, “PHP-Family Diesterase from Novosphingobium with Broad Specificity and High Catalytic Efficiency against Organophosphate Flame-Retardant Derived Diesters” (Biochemistry, 2024) can be followed below.

Read-outs that look alike come from different tables or passages of the source.

As usually defined, the Km is the concentration of substrate that gives half-maximal velocity.

Assay [1] concerns T1, No-PDE.
T1 construct: synthetic gene, recombinant, purified to homogeneity; trinuclear zinc site
Description: UV/vis Michaelis-Menten kinetics. It counts as biochemical, Novosphingobium sp. EMRT-2. The source says:
UV/vis Michaelis-Menten kinetics on No-PDE

Assay [2] has as its system T2, Sb-PDE.
T2 construct: synthetic gene, recombinant, purified to homogeneity; trinuclear zinc site
Description: UV/vis Michaelis-Menten kinetics. It counts as biochemical, Sphingobium sp. TCM1. The source says: UV/vis Michaelis-Menten kinetics on Sb-PDE

Assay [3] has as its system T1, No-PDE. In words: steady-state kinetics. Type of assay: biochemical, Novosphingobium sp. EMRT-2. The source says:
steady-state kinetics on No-PDE

For assay [4], the system named is T2, Sb-PDE. Type of assay: biochemical, Sphingobium sp. TCM1. The text has this:
steady-state kinetics on Sb-PDE

Take `O=[N+]([O-])c1ccc(OP(=O)(O)Oc2ccc([N+](=O)[O-])cc2)cc1` [compound 1, bis-p-nitrophenyl phosphate]: the figures for the Km in the assay on No-PDE [1] and in the assay on Sb-PDE [2] were 620 µM and 140 µM, respectively.
Consider `O=[N+]([O-])c1ccc(OP(=O)(O)O)cc1` [compound 11, p-nitrophenyl phosphate], for which the Km in the assay with No-PDE [3] came out at 1400 µM; with Sb-PDE [4], 140 µM.
With `O=P(O)(Oc1ccccc1)Oc1ccccc1` [compound 2, diphenyl phosphate], the Km amounted to 2300 µM with No-PDE [1] and 900 µM in the assay on Sb-PDE [2].
In the case of `O=P(O)(O)Oc1ccccc1` [compound 12, phenyl phosphate], the Km in the assay on Sb-PDE [4] was 1400 µM.
